From paper PMC5321753, “Enhanced expression of ADCY1 underlies aberrant neuronal signalling and behaviour in a syndromic autism model” (Nature Communications, 2017)

Assays:
[1] = test system: mice; test: NB001 toxicology study (body weight, organ weight, histology); format: in vivo, mouse
Experimental: Mice at 3 months (+/−10 days) of age were IP injected with NB001 twice daily at 50 mg kg^−1 for 2 weeks. Clinical observations were performed twice daily and body weights were measured on various days during the dosing regimen. At the end of the dosing period, mice were killed and blood was collected for clinical pathology (Diagnostic Center for Population and Animal Health, Michigan State University). The liver and kidney were collected and fixed in 10% buffered formalin (INVIVO facility at Michigan State University).

[2] = NB001 pharmacokinetic study, plasma and brain levels by LC/MS/MS; format: in vivo, mouse
Experimental: Following IP injection of NB001 (20 mg kg^−1), mice were killed at various time points, and 0.5–0.8 ml of blood was drawn from a cardiac puncture into a 1 ml syringe, which was pre-treated with NaHeparin. The blood was collected into 1.5 ml microfuge tubes coated with NaHeparin and put on ice immediately. Samples were centrifuged at 15,000 r.p.m. for 15 min. Blood plasma was collected from the upper layer, leaving the blood cells in the tube. The plasma was frozen at −80 °C for later analysis. Brains were taken out and weighed immediately. Brains were frozen at −80 °C for later preparation and analysis. The samples were subjected to LC/MS/MS with Turbo-Ionspray Interface used in the positive ion-mode (Pharmacokinetics Core, University of Michigan). Mouse liver microsome stability assay was performed by the Pharmacokinetics Core at University of Michigan.

[3] = test system: neuropathic pain; parameters: method as in PMID 21228397; details: systemic administration; cited from earlier work
[4] = test system: WT and Fmr1 KO mice; test: Light/dark test; format: in vivo, mouse
Experimental: (§1) Light/dark test was examined as described in our previous study. Light/dark test was performed using 3-month (+/−10 days) old mouse, which was first placed in the dark half of the chamber (Coulbourn Instruments). After 1 min of habituation, the trap door was opened and the mouse was allowed to move freely between the two chambers for 5 min. The time spent in each chamber and the number of entries into the lit side were recorded.
(§2) NB001 was dissolved in water to give a 25 mM stock solution. The stock was diluted in saline and IP injected into mice at 1 mg kg^−1 body weight. In all cases, the drug was administered 1 h before testing. Control mice were treated similarly but injected with saline.
To inhibit phosphodiesterase (PDE), rolipram was dissolved in 10% kolliphore and IP injected into mice at 0.5 or 0.03 mg kg^−1. The use of the higher dose (that is, 0.5 mg kg^−1) was to ensure sufficient inhibition of PDE[44][45]. […] Rolipram- or vehicle (10% kolliphore)-injected mice were examined with light/dark test and AGS 30 min after drug administration.

[5] = test system: WT mice; test: Behavioural examinations in WT mice (Fig. 5e-h; Table 2); format: in vivo, mouse; details: NB001 1 mg kg^-1 IP, marble burying, light/dark, social interaction, AGS
Experimental: Repetitive behaviour was determined by the marble burying test as described. 3-month-(+/−10 days) old mouse was placed in a regular mouse cage filled with 7.6 cm-deep bedding for 1 h before the test. The mouse was then briefly removed from the testing box and 15 marbles were evenly arranged in a 5 × 3 pattern on the surface of the bedding. The mouse was reintroduced into the testing box and was allowed to bury marbles for 10 min. At the end of the testing period, the number of marbles that were fully buried, partially buried and left on the surface was counted.
as §1, with “After 1 min of habituation, the trap door was opened and the mouse was allowed to move freely between the two chambers for 5 min.” left out
Audiogenic seizures (AGS) were examined with 21- to 24-day-old-mouse (7), as this phenotype is dependent on the age of the mouse and only detected in juvenile Frm1 KO mouse. […] The number of mice undergoing seizure activity within the 2-min period was counted. […]
Social interaction was determined by the 3-chamber test as described. […] The entrances were then opened and the activity of the test mouse was recorded. Time spent in each of the chambers and time spent sniffing the stranger mouse enclosure versus the empty enclosure were recorded. […]

[6] = test system: WT and Fmr1 KO mice; test: 3-chamber social interaction test; format: in vivo, mouse; details: NB001 1 mg kg^-1 IP, 1 h before testing; relative to WT level
Experimental: Social interaction was determined by the 3-chamber test as described. Mouse at 3 months (+/−10 days) of age was placed in a 3-chamber social interaction box and allowed to explore freely for 5 min. […] During the test, mouse was placed in the center chamber and the entrances to the side chambers were blocked. A novel stimulus mouse in a wire enclosure and an empty wire enclosure were placed in one of the side chambers, respectively. The entrances were then opened and the activity of the test mouse was recorded. Time spent in each of the chambers and time spent sniffing the stranger mouse enclosure versus the empty enclosure were recorded.
as §2

[7] = NB001 50 mg kg^-1 IP twice a day for 14 days
[8] = IP injection, 20 mg kg^-1, mice

**Q.** For `Nc1ncnc2c1ncn2CCNCCCCCO` [NB001, 5-{[2-(6-amino-9H-purin-9-yl)ethyl]amino}-1-pentanol], which body weight [1, 7] is on record?
**A.** did not affect

**Q.** And the “weight of major organs including heart/lung, kidney and liver” value [1, 7]?
**A.** did not affect

**Q.** What about the “histopathology in kidney and liver” value ([1]; NB001 50 mg kg^-1 IP twice a day for 14 days, H&E staining) of the same compound?
**A.** no significant sign of histopathology

**Q.** And the “side effects following two weeks of high dose administration” value ([1]; NB001 50 mg kg^-1 twice a day for 14 days)?
**A.** no significant side effects

**Q.** What about the absorption to plasma [2, 8] of the same compound?
**A.** absorbed to the blood stream

**Q.** What about the distribution to brain [2, 8] of the same compound?
**A.** distributed to the brain

**Q.** And the blood-brain barrier crossing ([2]; conclusion from plasma/brain levels and ref 40)?
**A.** can cross the blood–brain barrier

**Q.** What about the neuropathic pain [3] of the same compound?
**A.** attenuates

**Q.** What about the “transition between the light and dark chambers, NB001-injected Fmr1 KO versus WT mice” value ([4]; NB001 1 mg kg^-1 IP, 1 h before testing) of the same compound?
**A.** comparable

**Q.** What about the “time spent in the lit chamber, difference between groups” value ([4]; WT and Fmr1 KO mice, vehicle or 1 mg per kg NB001) of the same compound?
**A.** not significant

**Q.** And the “behaviour in WT mice” value [5]?
**A.** did not cause measurable changes

**Q.** What about the “reduced social interaction in Fmr1 KO mice” value [6] of the same compound?
**A.** normalized
